Laboratory results as given in patent US20100160226A1, “Y-RECEPTOR AGONISTS” (7TM PHARMA A/S, priority 2007, published 2010).

biological target: T1, human Y1 receptor (Homo sapiens, UniProt P25929); experiment: Human Y1 receptor potency assay (inositol phosphate turnover); format: cell-based; settings: COS-7 cells transfected with human Y1 receptor and Gqi5, read-out: hY1 EC50
T1 construct: expressed in transfected cells; host or cells: COS-7
T1 sequence (P25929 1-384): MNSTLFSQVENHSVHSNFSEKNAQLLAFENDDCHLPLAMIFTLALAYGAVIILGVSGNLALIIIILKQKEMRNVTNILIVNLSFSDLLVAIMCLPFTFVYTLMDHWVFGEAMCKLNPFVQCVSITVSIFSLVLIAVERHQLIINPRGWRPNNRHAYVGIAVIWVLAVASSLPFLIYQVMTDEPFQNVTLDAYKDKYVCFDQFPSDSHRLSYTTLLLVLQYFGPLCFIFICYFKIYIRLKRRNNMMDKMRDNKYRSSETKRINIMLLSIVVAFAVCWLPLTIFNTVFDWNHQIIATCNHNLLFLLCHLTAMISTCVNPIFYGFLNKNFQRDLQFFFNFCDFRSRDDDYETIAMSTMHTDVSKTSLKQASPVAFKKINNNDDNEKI
Experimental: Potency of the test compounds on the human Y2 receptor is determined by performing dose-response experiments in COS-7 cells transiently transfected with the human Y2 receptor as well as a promiscuous G protein, Gqi5 which ensures that the Y2 receptor couples through a Gq pathway leading to an increase in inositol phosphate turnover.
Cells are washed twice in buffer, 20 mM HEPES, pH 7.4, supplemented with 140 mM NaCl, 5 mM KCl, 1 mM MgSO4, 1 mM CaCl2, 10 mM glucose, 0.05% (w/v) bovine serum; and are incubated in 0.5 ml buffer supplemented with 10 mM LiCl at 37 C for 30 min. After stimulation with various concentrations of peptide for 45 min at 37 C, cells are extracted with 10% ice-cold perchloric acid followed by incubation on ice for 30 min. The resulting supernatants are neutralized with KOH in HEPES buffer, and the generated [3H]-inositol phosphate are purified on Bio-Rad AG 1-X8 anion-exchange resin and counted in a beta counter. Determinations are made in duplicates. EC50 values were calculated using a standard pharmacological data handling software, Prism 3.0 (graphPad Sofware, San Diego, USA).
Protocol as for the Y2 potency assay, except that human Y1-transformed COS-7 cells are used.

| Molecule | EC50 [nM] |
| --- | --- |
| H-APLEPVYPGDNATPEQMAQYAADLRRYINTITRQRY-NH2 [[Thr30, Ile31, Gln34]hPP] | > 1000 |
| H-LEPVYPGDNATPEQMAQYAADLRRYINMLTRQRY-NH2 [[Gln34]hPP3-36, reference compound] | > 1000 |

Next, values leading:

| EC50 [nM] | Molecule |
| --- | --- |
| > 1000 | H-PLEPVYPGDNATPEQMAQYAADLRRYINTLTRQRY-NH2 [[Thr30, Gln34]hPP2-36] |
| > 1000 | H-APLEPVYPGDNATPEQMAQYAADLRRYINTLTRQRY-NH2 [[Thr30, Gln34]hPP] |
| > 1000 | H-PLEPVYPGDNATPEQMAQYAADLRRYINTITRQRY-NH2 [[Thr30, Ile31, Gln34]hPP2-36] |

test system: not listed separately; experiment: in vivo; design: species or system cyno monkeys; settings: cynomolgus monkey
From the text: PYY itself is know to be extremely emetic when administered peripherally, in fact PYY was discovered-for “the second time” -in 1989 as the biologically active entity in a chromatographic fraction of an intestinal extract causing dogs to vomit (Harding and McDonald 1989 Peptides 10: 21-24). […] It has also been reported that PYY3-36 can cause nausea when administered peripherally to human subjects ([…] press release 29th of June 2004). From a physiological point of view it appears logically that PYY-and its biologically active conversion product-which normally first is secreted in large amounts during a very large meal or when food is dumped into the lower intestine due to various surgical procedures, is able to cause emesis and vomiting to relieve the subject from a situation of overt overeating. […] This is surprising since [[…]]PP has a relatively high potency on the Y2 receptor for which PYY3-36 is totally selective. […] Apparently, the Y4 receptor activation-conceivably in the area postreama-prevents the emetic effect of the Y2 activation form the same compound. This property of a combined Y2-Y4 selective agonist is of great benefit for the treatment of obesity and associated conditions.

| level at time molar [nM] | Molecule |
| --- | --- |
| 12 to 13 | CC[C@H](C)[C@H](NC(=O)[C@H](Cc1ccc(O)cc1)NC(=O)[C@H](CCCNC(=N)N)NC(=O)[C@H](CCCNC(=N)N)NC(=O)[C@H](CC(C)C)NC(=O)[C@H](CC(=O)O)NC(=O)[C@H](C)NC(=O)[C@H](C)NC(=O)[C@H](Cc1ccc(O)cc1)NC(=O)[C@H](CCC(N)=O)NC(=O)[C@H](C)NC(=O)[C@H](CCSC)NC(=O)[C@H](CCC(N)=O)NC(=O)[C@H](CCC(=O)O)NC(=O)[C@@H]1CCCN1C(=O)[C@@H](NC(=O)[C@H](C)NC(=O)[C@H](CC(N)=O)NC(=O)[C@H](CC(=O)O)NC(=O)CNC(=O)[C@@H]1CCCN1C(=O)[C@H](Cc1ccc(O)cc1)NC(=O)[C@@H](NC(=O)[C@@H]1CCCN1C(=O)[C@H](CCC(=O)O)NC(=O)[C@H](CC(C)C)NC(=O)[C@@H]1CCCN1C(=O)[C@H](C)N)C(C)C)[C@@H](C)O)C(=O)N[C@@H](CC(N)=O)C(=O)N[C@@H](CCSC)C(=O)N[C@@H](CC(C)C)C(=O)N[C@H](C(=O)N[C@@H](CCCNC(=N)N)C(=O)N[C@@H](CCC(N)=O)C(=O)N[C@@H](CCCNC(=N)N)C(=O)N[C@@H](Cc1ccc(O)cc1)C(N)=O)[C@@H](C)O [[Gln34]hPP] |
